One experiment concerns eNOS. Put plainly: Protein expression (optical density %) after KMUPs salts, eNOS. To be noted: 10 μM, 120 min; without treatment control 100 %. Type of experiment: cell-based.
In a further experiment the test system is PDE-5A. Put plainly: Protein expression (optical density %) after KMUPs salts, PDE-5A. The note with it: 10 μM, 120 min; without treatment control 100 %. Type of experiment: cell-based.
Another experiment relates to ROCKII. In words: Protein expression (optical density %) after KMUPs salts, ROCKII. To be noted: 10 μM, 120 min; without treatment control 100 %. It counts as cell-based.
The next experiment concerns iNOS. In words: Ovalbumine model, iNOS expression. Type of experiment: in vivo, BALB/c mice. To be noted: non-treatment allergic animal 100 %.
The test system of experiment [1] is MMP-9. In words: Ovalbumine model, MMP-9 expression, zymography and immunostaining. Type of experiment: in vivo, BALB/c mice. The note with it: inhalation 5 mM; non-treatment allergic animal 100 %. The protocol: (§1) In this long-term experiment, 6-8 week old BALB/c female mice were sensitized on days 1 and 8 by intra-peritoneal injection (i.p.) of ovalbumine (10 μg) (Sigma-Aldrich, Schnelldorf, Germany) adsorbed to 2 mg aluminum hydroxide (AlumInject; Perbio, Erembodegem, Belgium). Mice were divided into three groups. In Group 1, a control group was only exposed to saline nebulization by aerosol. The other 2 groups were subjected to ovalbumine (1%) nebulization. Before each challenge with ovalbumine, mice were either exposed to saline nebulization (Group 2) or KMUP-1 nebulization (5 mM) for 30 min by aerosol (Group 3).
The gelatinolytic activity of MMP-9 was measured by gelatin zymography as described previously (Cataldo D D, et al., 2002). Briefly, BALF (10 μl) was subjected to electrophoresis in 10% polyacrylamide gel containing gelatin (1 mg/ml). The gel was washed in 2.5% Triton X-100 to permit re-naturation of gelatinases and stained with Coomassie blue after overnight incubation. Destaining visualized clear zones of lysis against a blue background indicated the gelatinase activity (Hibbs, M S, et al., 1985).
The lung tissues were homogenized, washed with PBS and incubated in lysis buffer in addition to a protease inhibitor cocktail (Sigma, St. Louis, Mo.) to obtain extracts of lung proteins. A Western blot analysis was performed as described previously (Wu B N, et al., 2006). The samples were loaded to 10% SDS-PAGE gels and were separated at 120 V for 90 min. The blots were incubated with anti-eNOS antibody diluted at a ratio of 1:500, anti-sGCα1 antibody diluted at a ratio of 1:2000, anti-PKG antibody diluted at a ratio of 1:500, anti-VCAM-1 antibody diluted at a ratio of 1:500, anti-ICAM-1 antibody diluted at a ratio of 1:500, and anti-MMP-9 antibody diluted at a ratio of 1:600 overnight at 4° C. The membranes were stripped and re-blotted with anti-actin antibody (Sigma, St. Louis, Mo.) to verify the equal loading of protein in each lane.
Immunohistochemical analysis of eNOS enhancement by KMUP-1 was performed as follows. The lungs were perfused with saline followed by 10% formalin and then placed in 10% formalin for paraffin embedding. The lung tissues were cut into […] sections onto slides, dewaxed in 100% xylene, and then re-hydrated in graded alcohol solutions. Throughout the procedures, slides were washed as appropriate in PBS. Antigen retrieval was performed by microwave treatment for eNOS immunostaining. Sections were treated with 3% H2O2 (10 min) to inhibit endogenous peroxidases and incubated with normal serum (60 min) to reduce nonspecific binding of secondary antibodies. Sections were then incubated at 4° C. overnight with eNOS antibodies. After washing off unbounded primary antibodies, sections were incubated with secondary biotinylated antibodies against mouse or rabbit (DAKO Co., Japan) (60 min), followed by incubation in avidin/biotin/horseradish peroxidase complex (DAKO Co., Japan) (30 min) Subsequently, peroxidase activity was visualized by incubation (3 min) with 0.05% 3,3′-diaminobenzidine (DAKO Co., Japan), which gives a brown reaction product. The reaction was stopped by washing with water. The slides were counterstained with hematoxylin. For immunostaining of MMP-9 in lung tissue, the de-paraffinized 3-5 μm sections of lung tissue was performed as above eNOS, but using MMP-9 antibody.

Experiment [2] deals with BALF cells. Put plainly: Ovalbumine model, bronchoalveolar lavage cell counts. Type of experiment: in vivo, BALB/c mice. The note with it: inhalation 5 mM; for Neurophil: OVA 1.0 ± 0.2; for Lymphocyte / monocyte: OVA 2.4 ± 0.3; for (Table 5) / Eosinophil: OVA 37.2 ± 2.8; for Total cells: OVA 65.3 ± 3.4. Here is the method: as §1
After the sacrifice of mice, a cannula was placed in the trachea for bronchoalveolar lavage by gentle manual aspiration, using cold PBS-EDTA (0.05 mM, 1 ml) (Calbiochem, Darmstadt, Germany) as previously described (Cataldo D D, et al., 2002). The broncho alveolar lavage fluid (BALF) was centrifuged at 4° C. for 10 min (1200 rpm). The supernatant was frozen at −80° C. for protein assessment and the cell pellet was resuspended in PBS-EDTA (0.05 mM, 1 ml). Total cell counts were performed manually using a thoma chamber. The differential cell counts were performed using morphologic criteria on cytocentrifuged preparations (Cytospin) after staining with Diff-Quick (Dade, Belgium). Differential cell counts were performed by one blinded observer unaware of the experimental treatment.

The test system of the next experiment is IL-5. In words: Ovalbumine model, plasma IL-5 (ELISA). To be noted: OVA-sens; inhalation 5 mM; OVA-sens alone 43 ± 6. Type of experiment: in vivo, mice. The protocol: as §1
On the technique in general: In an ELISA, binding on a coated surface is turned into a signal by an enzyme label.

A further experiment deals with IL-13. Put plainly: Ovalbumine model, plasma IL-13 (ELISA). It counts as in vivo, mice. To be noted: OVA-sens; inhalation 5 mM; OVA-sens alone 35 ± 6. Here is the method:
as §1

The subject of experiment [3] is MMP-9. Put plainly: Ovalbumine model, MMP-9 expression, zymography and immunostaining. To be noted: oral 2.5 mg Kg^−1; non-treatment allergic animal 100 %. Type of experiment: in vivo, BALB/c mice.
In experiment [4] the test system is BALF cells. In words: Ovalbumine model, bronchoalveolar lavage cell counts. Type of experiment: in vivo, BALB/c mice. The note with it: oral 2.5 mg Kg^−1.

The values below come from US20130095059A1, “INHALED NO DONOR KMUPS DERIVATIVE PREVENTING ALLERGIC PULMONARY VASCULAR AND BRONCHIAL INFLAMMATION VIA SUPPRESSED CYTOKINES, INOS AND INFLAMMATORY CELL COUNTS IN ASTHMA MODEL” (priority 2007, published 2013).

On to `Cl.Cn1c(=O)c2c(ncn2CCN2CCN(c3ccccc3Cl)CC2)n(C)c1=O` [KMUP-1 HCl, 7-[2-[4-(2-chlorophenyl)piperazinyl]ethyl]-1,3-dimethylxanthine HCl], for which the “eNOS protein expression, optical densitivity %” value in the experiment with eNOS is on record as 155 ± 14.8%. In the experiment on PDE-5A, the “PDE-5A protein expression, optical densitivity %” value came to 64 ± 4.5%. Besides, the “ROCKII protein expression, optical densitivity %” value with ROCKII was 42 ± 6.3%. Also, in the experiment with iNOS (inhalation 5 mM), the iNOS is given as 55 ± 14.8%. Moreover, in the experiment with MMP-9 [1], the MMP-9 stood at 42 ± 6.3%. Also, in the experiment with BALF cells [2], the Neurophil is recorded as 1.0 ± 0.2 × 10^4 cell/ml, the Lymphocyte is on record as 1.5 ± 0.3 × 10^4 cell/ml, the monocyte is recorded as 1.5 ± 0.3 × 10^4 cell/ml and the “(Table 5)” value was 23.7 ± 2.8 × 10^4 cell/ml. Moreover, in the experiment on BALF cells [2], the Eosinophil is recorded as 23.7 ± 2.8 × 10^4 cell/ml and the Total cells is 50.6 ± 2.4 × 10^4 cell/ml. Besides, the IL-5 in the experiment with IL-5 is 31 ± 6 pg/mL. Also, in the experiment with IL-13, the IL-13 is 14 ± 5 pg/mL.
Take `Cn1c(=O)c2c(ncn2CCN2CCN(c3ccccc3Cl)CC2)n(C)c1=O.O=C(O)CC(O)(CC(=O)O)C(=O)O` [KMUP-1-citric acid, 7-[2-[4-(2-chlorobenzene)piperazinyl]ethyl]-1,3-dimethylxanthine-Citric acid]: in the experiment on eNOS, the “eNOS protein expression, optical densitivity %” value is recorded as 152 ± 13.6%. Further, in the experiment on PDE-5A, the “PDE-5A protein expression, optical densitivity %” value is reported as 66 ± 5.2%. Further, in the experiment with ROCKII, the “ROCKII protein expression, optical densitivity %” value amounted to 43 ± 3.8%.
In the same order, the values of `Cn1c(=O)c2c(ncn2CCN2CCN(c3ccccc3Cl)CC2)n(C)c1=O.O=C(O)c1cccnc1` [KMUP-1-nicotinic acid, 7-[2-[4-(2-chlorobenzene)piperazinyl]ethyl]-1,3-dimethylxanthine-Nicotinic acid] are 158 ± 12.4%, 62 ± 4.8% and 41 ± 2.5%.
In the case of `COc1ccccc1N1CCN(CCn2cnc3c2c(=O)n(C)c(=O)n3C)CC1.Cl` [KMUP-2 HCl, 7-[2-[4-(2-methoxybenzene)piperazinyl]ethyl]-1,3-dimethylxanthine hydrochloride], the “PDE-5A protein expression, optical densitivity %” value in the experiment on PDE-5A was found to be 68 ± 5.3%. Moreover, the “ROCKII protein expression, optical densitivity %” value in the experiment on ROCKII is 40 ± 3.7%. The same compound yielded an iNOS with iNOS (inhalation 5 mM) of 47 ± 8.6%. Moreover, in the experiment on MMP-9 [1], the MMP-9 is on record as 40 ± 3.7%. In the experiment with BALF cells [2], the Neurophil was 1.0 ± 0.4 × 10^4 cell/ml, the Lymphocyte is on record as 1.2 ± 3.7 × 10^4 cell/ml, the monocyte is on record as 1.2 ± 3.7 × 10^4 cell/ml and the “(Table 5)” value is 25 ± 2.2 × 10^4 cell/ml. In the experiment with BALF cells [2], the Eosinophil is 25 ± 2.2 × 10^4 cell/ml and the Total cells is given as 51.0 ± 0.4 × 10^4 cell/ml. The same compound returned an IL-5 in the experiment on IL-5 of 32 ± 6 pg/mL. The IL-13 in the experiment on IL-13 was 15 ± 3 pg/mL.
For the compound `COc1ccccc1N1CCN(CCn2cnc3c2c(=O)n(C)c(=O)n3C)CC1.O=C(O)CC(O)(CC(=O)O)C(=O)O` [KMUP-2-citric acid, 7-[2-[4-(2-methoxybenzene)piperazinyl]ethyl]-1,3-dimethylxanthine-Citric acid], the “PDE-5A protein expression, optical densitivity %” value in the experiment with PDE-5A was 71 ± 5.4%. In addition, in the experiment on ROCKII, the “ROCKII protein expression, optical densitivity %” value turned out to be 40 ± 3.7%.
As for `Cl.Cn1c(=O)c2c(ncn2CCN2CCN(c3ccc([N+](=O)[O-])cc3)CC2)n(C)c1=O` [KMUP-3 HCl, 7-[2-[4-(4-nitrobenzene)piperazinyl]ethyl]-1,3-dimethyl xanthine HCl], the “eNOS protein expression, optical densitivity %” value in the experiment on eNOS stood at 148 ± 7.5%. The “PDE-5A protein expression, optical densitivity %” value with PDE-5A turned out to be 63 ± 5.2%. Moreover, the “ROCKII protein expression, optical densitivity %” value in the experiment on ROCKII is listed as 44 ± 2.9%. For the same compound, the iNOS in the experiment with iNOS (inhalation 5 mM) was 48 ± 7.5%; with iNOS (oral 2.5 mg Kg^−1) it was 45 ± 7.5%. In addition, the MMP-9 was found to be 44 ± 2.9% in the experiment with MMP-9 [1] and 43 ± 1.6% in the experiment with MMP-9 [3]. For the same compound, the Neurophil in the experiment with BALF cells [2] is 1.0 ± 0.3 × 10^4 cell/ml; in the experiment on BALF cells [4] (OVA 1.0 ± 0.2) it was 1.1 ± 0.3 × 10^4 cell/ml. Moreover, the Lymphocyte with BALF cells [2] was 1.3 ± 0.6 × 10^4 cell/ml; in the experiment on BALF cells [4] (OVA 2.4 ± 0.3), 1.7 ± 2.8 × 10^4 cell/ml. Moreover, the monocyte was 1.3 ± 0.6 × 10^4 cell/ml in the experiment on BALF cells [2] and 1.7 ± 2.8 × 10^4 cell/ml in the experiment on BALF cells [4] (OVA 2.4 ± 0.3). The “(Table 5)” value is recorded as 24 ± 3.5 × 10^4 cell/ml with BALF cells [2] and 25 ± 2.5 × 10^4 cell/ml with BALF cells [4] (OVA 37.2 ± 2.8). The values for the Eosinophil in the experiment on BALF cells [2] and with BALF cells [4] (OVA 37.2 ± 2.8) were 24 ± 3.5 × 10^4 cell/ml and 25 ± 2.5 × 10^4 cell/ml, respectively. For the same compound, the Total cells is reported as 52.1 ± 0.2 × 10^4 cell/ml with BALF cells [2] and 51.2 ± 0.3 × 10^4 cell/ml in the experiment on BALF cells [4] (OVA 65.3 ± 3.4).
As to `Cn1c(=O)c2c(ncn2CCN2CCN(c3ccc([N+](=O)[O-])cc3)CC2)n(C)c1=O.O=C(O)c1cccnc1` [KMUP-3-nicotinic acid, 7-[2-[4-(4-nitrobenzene)piperazinyl]ethyl]-1,3-dimethylxanthine-Nicotinic acid], the “eNOS protein expression, optical densitivity %” value in the experiment with eNOS was determined as 145 ± 7.5%. Moreover, the “PDE-5A protein expression, optical densitivity %” value with PDE-5A is 60 ± 4.1%. Further, the “ROCKII protein expression, optical densitivity %” value in the experiment with ROCKII stood at 43 ± 1.6%.
For the compound `Cn1c(=O)c2c(ncn2CCN2CCN(c3ccccc3[N+](=O)[O-])CC2)n(C)c1=O.O=C(O)CC(O)(CC(=O)O)C(=O)O` [KMUP-4-citric acid, 7-[2-[4-(2-nitrobenzene)piperazinyl]ethyl]-1,3-dimethylxanthine-Citric acid], the “eNOS protein expression, optical densitivity %” value in the experiment on eNOS is recorded as 131 ± 6.7%. Moreover, in the experiment with PDE-5A, the “PDE-5A protein expression, optical densitivity %” value worked out at 78 ± 3.6%. Besides, the “ROCKII protein expression, optical densitivity %” value with ROCKII stood at 56 ± 3.4%.
